Assay results as given in ChEMBL document CHEMBL5233206, “An overview on the synthesis of carbohydrate-based molecules with biological activity related to neurodegenerative diseases” (RSC Med Chem, 2021).

How the values were obtained:
Acetylcholinesterase [1] = target: T1, Acetylcholinesterase (Electrophorus electricus, UniProt O42275)
Description: Binding affinity to electrical eel AChE assessed as inhibition constant incubated for 20 mins by absorbance based analysis

Acetylcholinesterase [2] = target: T1, Acetylcholinesterase; experiment: Inhibition of electrical eel AChE by ellman's method
Cholinesterase [3] = target: T2, Cholinesterase (Equus caballus, UniProt P81908)
T2 sequence (P81908 whole entry): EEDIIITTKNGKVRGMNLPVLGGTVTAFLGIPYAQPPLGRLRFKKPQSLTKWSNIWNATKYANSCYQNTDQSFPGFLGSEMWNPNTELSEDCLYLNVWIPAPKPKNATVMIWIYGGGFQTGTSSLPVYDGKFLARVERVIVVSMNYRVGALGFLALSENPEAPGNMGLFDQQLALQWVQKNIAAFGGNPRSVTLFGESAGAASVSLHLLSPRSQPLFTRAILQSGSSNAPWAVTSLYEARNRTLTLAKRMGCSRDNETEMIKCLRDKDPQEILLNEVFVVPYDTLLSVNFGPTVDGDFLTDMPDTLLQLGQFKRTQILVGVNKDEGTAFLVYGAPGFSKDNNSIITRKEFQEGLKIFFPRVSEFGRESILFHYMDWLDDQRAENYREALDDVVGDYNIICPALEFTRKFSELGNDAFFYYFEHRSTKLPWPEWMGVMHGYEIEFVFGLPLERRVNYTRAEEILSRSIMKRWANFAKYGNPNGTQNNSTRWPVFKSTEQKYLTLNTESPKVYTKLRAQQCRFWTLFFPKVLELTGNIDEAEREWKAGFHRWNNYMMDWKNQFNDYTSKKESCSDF
Description: Inhibition of equine serum BuChE by ellman's method

Acetylcholinesterase [4] = target: T3, Acetylcholinesterase (Homo sapiens, UniProt P22303); experiment: Inhibition of AChE (unknown origin) at 50 uM incubated for 20 mins by absorbance based analysis relative to control
T3 sequence (P22303 whole entry): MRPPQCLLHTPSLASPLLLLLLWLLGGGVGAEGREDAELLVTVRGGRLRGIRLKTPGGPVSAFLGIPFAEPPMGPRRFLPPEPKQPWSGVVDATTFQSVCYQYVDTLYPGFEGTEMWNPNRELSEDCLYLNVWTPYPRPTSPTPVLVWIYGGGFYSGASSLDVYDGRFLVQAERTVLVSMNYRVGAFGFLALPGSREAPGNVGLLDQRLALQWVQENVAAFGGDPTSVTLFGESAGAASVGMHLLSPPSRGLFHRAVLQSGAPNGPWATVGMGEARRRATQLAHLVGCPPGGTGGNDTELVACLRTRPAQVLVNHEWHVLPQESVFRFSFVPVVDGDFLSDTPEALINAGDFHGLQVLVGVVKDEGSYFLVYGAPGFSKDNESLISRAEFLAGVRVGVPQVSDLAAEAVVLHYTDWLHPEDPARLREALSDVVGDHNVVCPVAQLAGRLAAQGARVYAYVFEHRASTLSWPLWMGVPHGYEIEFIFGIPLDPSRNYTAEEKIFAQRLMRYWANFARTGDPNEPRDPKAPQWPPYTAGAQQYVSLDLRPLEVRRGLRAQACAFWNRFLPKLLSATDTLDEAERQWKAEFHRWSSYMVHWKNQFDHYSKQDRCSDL

Cholinesterase [5] = target: T4, Cholinesterase (Homo sapiens, UniProt P06276); experiment: Inhibition of BuChE (unknown origin) at 50 uM incubated for 20 mins by absorbance based analysis relative to control
T4 sequence (P06276 whole entry): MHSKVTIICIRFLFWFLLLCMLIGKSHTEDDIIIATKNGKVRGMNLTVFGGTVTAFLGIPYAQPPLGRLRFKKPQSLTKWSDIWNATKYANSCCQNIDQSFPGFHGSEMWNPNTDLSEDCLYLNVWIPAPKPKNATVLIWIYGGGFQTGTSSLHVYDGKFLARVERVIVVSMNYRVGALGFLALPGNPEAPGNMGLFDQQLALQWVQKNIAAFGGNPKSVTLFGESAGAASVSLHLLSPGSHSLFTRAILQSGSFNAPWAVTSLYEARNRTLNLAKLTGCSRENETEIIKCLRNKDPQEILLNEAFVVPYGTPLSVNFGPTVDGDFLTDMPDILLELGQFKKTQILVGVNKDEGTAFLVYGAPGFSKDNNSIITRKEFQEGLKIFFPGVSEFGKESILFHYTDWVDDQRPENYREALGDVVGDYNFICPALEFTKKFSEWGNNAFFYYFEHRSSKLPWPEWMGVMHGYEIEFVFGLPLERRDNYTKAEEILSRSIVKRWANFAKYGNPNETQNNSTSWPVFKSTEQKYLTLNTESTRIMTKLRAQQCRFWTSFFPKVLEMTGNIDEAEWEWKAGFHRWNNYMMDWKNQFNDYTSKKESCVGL

Cholinesterase [6] = target: T4, Cholinesterase
Cholinesterase [7] = target: T2, Cholinesterase; experiment: Binding affinity to horse serum BuChE using ATCh-iodide as substrate by ellman's method
Acetylcholinesterase [8] = target: T3, Acetylcholinesterase
Description: Binding affinity to AChE (unknown origin) assessed as inhibition constant incubated for 30 mins by ellman's method

Cholinesterase [9] = target: T4, Cholinesterase; remark: listed apart in the source
Description: Binding affinity to BuChE (unknown origin) assessed as inhibition constant incubated for 30 mins by ellman's method

Cholinesterase [10] = target: Cholinesterase (Mus musculus, UniProt Q03311); experiment: Inhibition of mouse serum BuChE; type: cell-free
Sequence of Cholinesterase (Mus musculus, UniProt Q03311) (Q03311 whole entry): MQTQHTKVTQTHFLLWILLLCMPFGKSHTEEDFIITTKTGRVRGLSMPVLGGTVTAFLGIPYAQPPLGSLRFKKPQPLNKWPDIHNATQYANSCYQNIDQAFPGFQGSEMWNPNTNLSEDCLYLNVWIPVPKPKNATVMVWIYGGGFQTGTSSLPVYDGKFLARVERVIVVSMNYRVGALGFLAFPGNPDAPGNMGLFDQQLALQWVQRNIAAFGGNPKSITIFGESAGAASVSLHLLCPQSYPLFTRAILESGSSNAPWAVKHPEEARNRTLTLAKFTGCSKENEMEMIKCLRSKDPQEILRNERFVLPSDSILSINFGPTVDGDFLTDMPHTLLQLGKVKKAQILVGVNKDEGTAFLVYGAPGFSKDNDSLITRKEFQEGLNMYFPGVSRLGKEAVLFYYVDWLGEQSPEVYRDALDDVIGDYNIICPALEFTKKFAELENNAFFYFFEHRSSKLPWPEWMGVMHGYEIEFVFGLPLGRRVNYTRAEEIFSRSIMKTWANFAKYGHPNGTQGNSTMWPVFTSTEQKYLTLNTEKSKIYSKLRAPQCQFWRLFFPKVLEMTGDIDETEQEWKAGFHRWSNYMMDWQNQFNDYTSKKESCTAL

Acetylcholinesterase [11] = target: T5, Acetylcholinesterase (Mus musculus, UniProt P21836); experiment: Inhibition of mouse brain AChE; type: tissue-based
T5 sequence (P21836 whole entry): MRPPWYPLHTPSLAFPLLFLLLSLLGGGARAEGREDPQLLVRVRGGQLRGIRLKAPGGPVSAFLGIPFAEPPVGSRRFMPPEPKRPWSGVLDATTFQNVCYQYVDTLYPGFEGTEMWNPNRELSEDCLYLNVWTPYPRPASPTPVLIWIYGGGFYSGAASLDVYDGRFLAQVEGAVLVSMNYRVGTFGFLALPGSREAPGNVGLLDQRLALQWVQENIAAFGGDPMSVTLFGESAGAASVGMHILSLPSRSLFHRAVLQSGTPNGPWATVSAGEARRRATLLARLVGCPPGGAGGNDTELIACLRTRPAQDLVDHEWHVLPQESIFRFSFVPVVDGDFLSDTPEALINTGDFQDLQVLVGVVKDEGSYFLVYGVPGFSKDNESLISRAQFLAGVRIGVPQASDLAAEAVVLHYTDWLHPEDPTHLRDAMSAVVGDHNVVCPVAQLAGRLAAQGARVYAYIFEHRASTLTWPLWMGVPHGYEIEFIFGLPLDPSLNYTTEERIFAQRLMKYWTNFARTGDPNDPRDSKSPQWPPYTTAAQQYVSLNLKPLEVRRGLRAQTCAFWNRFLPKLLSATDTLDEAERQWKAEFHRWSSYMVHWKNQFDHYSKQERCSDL

Acetylcholinesterase [12] = target: T3, Acetylcholinesterase; experiment: Inhibition of AChE (unknown origin)
Cholinesterase [13] = target: T4, Cholinesterase; experiment: Binding affinity to BuChE (unknown origin) assessed as inhibition constant incubated for 20 mins by absorbance based analysis
Cholinesterase [14] = target: T4, Cholinesterase; experiment: Binding affinity to BuChE (unknown origin) assessed as inhibition constant by ellman's method
[15] = Lipophilicity, logP of the compound; type: physicochemical; conditions: octanol/water
Homo sapiens = species on record: Homo sapiens; experiment: Selectivity ratio of IC50 for AChE (unknown origin) to IC50 for BuChE (unknown origin)

T1 sequence (O42275 whole entry): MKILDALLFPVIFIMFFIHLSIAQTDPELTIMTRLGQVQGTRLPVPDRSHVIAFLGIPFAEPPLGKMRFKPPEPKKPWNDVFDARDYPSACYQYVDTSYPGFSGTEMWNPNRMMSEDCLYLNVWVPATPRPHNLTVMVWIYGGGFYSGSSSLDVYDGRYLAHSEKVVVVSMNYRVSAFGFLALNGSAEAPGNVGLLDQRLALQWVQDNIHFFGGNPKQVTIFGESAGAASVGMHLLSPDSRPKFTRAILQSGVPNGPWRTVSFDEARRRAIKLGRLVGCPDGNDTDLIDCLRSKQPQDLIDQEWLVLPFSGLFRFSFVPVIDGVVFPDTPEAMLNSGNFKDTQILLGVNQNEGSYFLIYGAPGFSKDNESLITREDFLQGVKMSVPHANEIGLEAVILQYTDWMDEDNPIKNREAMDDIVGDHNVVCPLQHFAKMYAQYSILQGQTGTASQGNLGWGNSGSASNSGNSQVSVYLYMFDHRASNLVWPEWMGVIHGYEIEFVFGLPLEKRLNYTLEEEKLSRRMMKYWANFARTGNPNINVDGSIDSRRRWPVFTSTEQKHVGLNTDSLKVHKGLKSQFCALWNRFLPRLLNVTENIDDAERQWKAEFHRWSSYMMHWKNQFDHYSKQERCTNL

## CCCCCCCCCCCCNC(=O)[C@@H](OCc1ccccc1)[C@H]1O[C@H](n2cc(-c3ccccc3)nn2)[C@H](OC(C)=O)[C@H]1OCc1ccccc1
Acetylcholinesterase [1]
  Ki: 9.69 µM

## O=c1c2ccccc2n(CCCCCCn2cc(CO[C@H]3C[C@H](O)[C@@H](CO)O3)nn2)c2ccccc12
Acetylcholinesterase [2]
  IC50: 167 µM
Cholinesterase [3]
  IC50: 42.8 µM

## CCCCCCCCO[C@H]1[C@H](OC(C)=O)[C@@H](Cn2c(=O)c3c(ncn3C)n(C)c2=O)OC(NS(C)(=O)=O)[C@@H]1OC(C)=O (stereo partly drawn)
Acetylcholinesterase [4]
  inhibition: 28.3%
Cholinesterase [5]
  inhibition: 52.6%

## CCCCCCCCCCCCNC(=O)[C@@H](OCc1ccccc1)[C@H]1OC(OC(C)=O)[C@H](OC(C)=O)[C@H]1OCc1ccccc1 (stereo partly drawn)
Acetylcholinesterase [1]
  Ki: > 100 µM

## COC1O[C@H](Cn2ccc(=O)n(C[C@H]3O[C@H](OC)[C@H](OCc4ccccc4)[C@@H](OCc4ccccc4)[C@@H]3OCc3ccccc3)c2=O)[C@@H](OCc2ccccc2)[C@H](OCc2ccccc2)[C@H]1OCc1ccccc1 (stereo partly drawn)
Cholinesterase [6]
  Ki: 4 µM
Acetylcholinesterase [1]
  Ki: 4.2 µM

## O=c1c2ccccc2n(CCCCCCn2cc(CO[C@@H]3O[C@H](CO)[C@H](O)[C@H](O)[C@H]3O)nn2)c2ccccc12
Acetylcholinesterase [2]
  IC50: 44.7 µM
Cholinesterase [3]
  IC50: 38.3 µM

## OC[C@H]1O[C@@H](OCCN2CN(Cc3ccccc3)c3ccccc32)[C@H](O)[C@@H](O)[C@H]1O
Cholinesterase [7]
  Ki: 26 µM

## CC(=O)Nc1nc(Cl)c2ncn(C3O[C@H](C(=O)O)[C@@H](OC(C)=O)[C@@H](OC(C)=O)[C@H]3OC(C)=O)c2n1 (stereo partly drawn)
Acetylcholinesterase [8]
  Ki: 26.9 µM
Cholinesterase [9]
  Ki: > 100 µM

## CC1(C)O[C@H]2O[C@H](CNCCCCCCCCCCNc3c4c(nc5ccccc35)CCCC4)[C@H](O)[C@H]2O1
Cholinesterase [10]
  IC50: 0.031 µM
Acetylcholinesterase [11]
  IC50: 0.01 µM

## CCCCCCCCCCCCNC(=O)[C@@H](OCc1ccccc1)[C@H]1OC(n2cc(-c3ccccc3)nn2)[C@H](OC(C)=O)[C@H]1OC(C)=O (stereo partly drawn)
Acetylcholinesterase [1]
  Ki: 9.5 µM

## COc1cc(CO)ccc1O[C@@H]1O[C@H](CO)[C@@H](O)[C@H](O)[C@H]1O [VANILLOLOSIDE]
Acetylcholinesterase [12]
  IC50: 4.55 µM

## CC1(C)O[C@H]2O[C@H](CNCCCCCCCCNc3c4c(nc5ccccc35)CCCC4)[C@H](O)[C@H]2O1
Cholinesterase [10]
  IC50: 0.011 µM
Acetylcholinesterase [11]
  IC50: 0.084 µM

## CC1(C)O[C@H]2O[C@H](CNCCCCCCCCCCCNc3c4c(nc5ccccc35)CCCC4)[C@H](O)[C@H]2O1
Cholinesterase [10]
  IC50: 0.0049 µM
Acetylcholinesterase [11]
  IC50: 0.0022 µM

## CC1(C)O[C@H]2O[C@H](CNCCCCCCCCCNc3c4c(nc5ccccc35)CCCC4)[C@H](O)[C@H]2O1
Cholinesterase [10]
  IC50: 0.025 µM
Acetylcholinesterase [11]
  IC50: 0.0051 µM

## CC1(C)O[C@H]2O[C@H](NCCCCCCCNc3c4c(nc5ccccc35)CCCC4)[C@H](O)[C@H]2O1
Cholinesterase [10]
  IC50: 0.027 µM
Acetylcholinesterase [11]
  IC50: 0.0087 µM

## CCCCCCCCO[C@H]1[C@H](OC(C)=O)[C@@H](Cn2c(=O)c3c(ncn3C)n(C)c2=O)OC(OC(C)=O)[C@@H]1OC(C)=O (stereo partly drawn)
Acetylcholinesterase [4]
  inhibition: 66.5%
Cholinesterase [13]
  Ki: 5.4 µM
Cholinesterase [5]
  inhibition: 75.1%

## CC(=O)Nc1nc(Cl)c2ncn(C3O[C@H](CC(=O)NCc4ccccc4)[C@H](OC(C)=O)[C@H]3OC(C)=O)c2n1 (stereo partly drawn)
Acetylcholinesterase [8]
  Ki: 14.8 µM
Cholinesterase [9]
  Ki: > 100 µM

## OC[C@H]1O[C@@H](OCCn2cnc3ccccc32)[C@H](O)[C@@H](O)[C@H]1O
Cholinesterase [7]
  Ki: 782 µM

## CC1=C(CO[C@@H]2O[C@H](CO[C@@H]3O[C@H](CO)[C@@H](O)[C@H](O)[C@H]3O)[C@@H](O)[C@H](O)[C@H]2O)C(C)(C)CCC1
Acetylcholinesterase [12]
  IC50: 3.2 µM

## CC1(C)O[C@H]2[C@@H](O1)[C@@H](CNCCCCCCCCCCNc1c3c(nc4ccccc14)CCCC3)O[C@@H]1OC(C)(C)O[C@@H]12
Cholinesterase [10]
  IC50: 0.026 µM
Acetylcholinesterase [11]
  IC50: 0.0076 µM

## O=c1c2ccccc2n(CCCCCCn2cc(CO[C@@H]3O[C@H](CO)[C@@H](O)[C@H]3O)nn2)c2ccccc12
Cholinesterase [14]
  Ki: 1.76 µM
[15]
  logP: 2.68
Homo sapiens
  Ratio IC50: 20.6
Acetylcholinesterase [2]
  IC50: 143 µM
Cholinesterase [3]
  IC50: 6.95 µM

## CC(=O)Nc1nc(Cl)c2c(ncn2[C@H]2O[C@H](COCc3ccccc3)[C@@H](OCc3ccccc3)[C@H](OCc3ccccc3)[C@@H]2OCc2ccccc2)n1
Cholinesterase [9]
  Ki: 0.05 µM

## COC1O[C@H](Cn2ccc(=O)n(C[C@H]3O[C@H](OC)[C@H](O)[C@@H](O)[C@@H]3O)c2=O)[C@@H](O)[C@H](O)[C@H]1O (stereo partly drawn)
Cholinesterase [6]
  Ki: < 100 µM
Acetylcholinesterase [1]
  Ki: 22.9 µM

## CCCCCCCCCCCCNC(=O)[C@@H](OCc1ccccc1)[C@H]1O[C@H](N=[N+]=[N-])[C@H](OC(C)=O)[C@H]1OCc1ccccc1
Acetylcholinesterase [1]
  Ki: > 100 µM
